One data set can be described thus: Hygroscopicity test. In kind it is physicochemical. As to conditions: 25° C., RH80%, 24 hours, hydrobromide. Here is the method: An appropriate amount of a test product is taken and spread in a glass-stoppered weighing bottle that has been placed in an artificial climate box (temperature is 25° C.±1° C., relative humidity is 80%±2%) for 24 hours. The weighing bottle is opened, put together with the stopper in the artificial climate box (the temperature is 25° C.±1° C., the relative humidity is 80%±2%) for 24 hours, and then taken out. The moisture content of the test product before and after being placed in the artificial climate box is measured, and the hygroscopicity is measured by comparing the change in moisture content.

Data set [1] relates to beagle dogs. Briefly: Toxicity test of beagle dogs by intragastric administration for 14 days and drug withdrawal for 14 days. In kind it is in vivo. As to the method: (§1) The safety of the hydrobromide of Compound Z in SD rats and beagle dogs was evaluated in accordance with the “Good Laboratory Practice” (2017) issued by the National Medical Products Administration (NMPA), and the acute toxicity test and 14-day long-term toxicity test were carried out, respectively.
(§2) Test method: 40 beagle dogs were randomly divided into 4 groups, 10 dogs in each group, half male and half female. The dogs were given an intragastric administration of a solvent of PEG400/Kolliphor® HS15/ultrapure water (40/10/50, v/v/v) and the hydrobromide (30, 100 and 250 mg/kg) of Compound Z dissolved in the solvent, respectively, once a day for 14 consecutive days; three-fifths of the animals in each group (6 animals in each group, half male and half female) were dissected after the end of the administration period (day 15); the remaining animals in each group (4 animals in each group, half male and half female) were dissected at the end of the 14-day recovery period (day 29). The following indexes were observed, measured and evaluated: clinical observations, ophthalmological examination, body weight, feed consumption, body temperature, electrocardiogram (HR, PR interval, QRS interval, T wave amplitude, QT interval and QTcV interval), clinical Pathology (hematology, blood coagulation, plasma biochemistry, urine), pathological examination (morphological observation by naked eyes, organ weight, histopathological examination).

Experiment in data set [2]: as above
Conditions: both sexes, dog, in vivo, po; beagle dogs, males and females, intragastric once a day for 14 consecutive days, 14 days recovery; read-out: no-observed-adverse-effect level (NOAEL). The class given is in vivo. As to the method:
as §1, §2

Data set [3] relates to SD rats. Briefly: Toxicity test of a single intragastric administration to SD rats. In kind it is in vivo. As to conditions: SD rats, single intragastric 200, 600 and 2000 mg/kg, 14 days observation. As to the method:
as §1
(§3) Method: 40 SD rats were randomly divided into 4 groups, 10 rats in each group, half male and half female. The rats were given a single intragastric administration of a solvent of PEG400/Kolliphor® HS 15/ultrapure water (40/10/50, v/v/v) and the hydrobromide of Compound Z (200, 600 and 2000 mg/kg, based on the free base) dissolved in this solvent, respectively. After administration, observation was continued for 14 days, and dissection was performed on the 15th day as planned. During the test, clinical observations, body weight, feed consumption and anatomical and morphological observations by naked eyes were evaluated.

Experiment in data set [4]: as above
Conditions: both sexes, Sprague-Dawley (SD), rat, in vivo, po. In kind it is in vivo. As to the method:
as §1, §3

For data set [5], the system named is beagle dogs. The experiment in a line: Toxicity test of a single intragastric administration to beagle dogs. The class given is in vivo. Conditions: beagle dogs, single intragastric 50, 250 and 1000 mg/kg. As to the method: as §1
(§4) Method: 8 beagle dogs were randomly divided into 4 groups, 2 dogs in each group, one male and one female. The dogs were given a single intragastric administration of a solvent of PEG400/Kolliphor® HS 15/ultrapure water (40/10/50, v/v/v) and the hydrobromide of Compound Z (50, 250 and 1000 mg/kg, based on the free base) dissolved in this solvent, respectively. After administration, observation was continued for 14 days, and dissection was performed on the 15th day as planned. Clinical observations, body weight, feed consumption, clinical pathology (blood, blood coagulation, plasma biochemistry), and morphological observation by naked eyes were evaluated.

Experiment in data set [6]: as above
In kind it is in vivo. Conditions: both sexes, beagle, dog, in vivo, po. Here is the method:
as §1, §4

Data set [7] is classed as physicochemical. As to conditions: 7 days. As to the method: The test product is placed in suitable clean containers, and then placed under conditions of high temperature (80° C.), high humidity (25° C., relative humidity 92.5%), and light (light intensity 4500±500 1× and 90 μw/cm^2), respectively, for 7 days, and samples are taken on the 7th day and tested according to the stability inspection items.

A short description of another data set: physchem. The class given is physicochemical. Conditions: 37 °C, water, thermodynamic from solid, Solubility in water. Here is the method:
About 10 mg of the test product is taken and put in a 1.5 mL sample tube, to which 1 mL of deionized water is added, and then the sample tube is placed in a constant temperature mixer and shaken at 37° C. for 30 minutes; after shaking, the sample tube is placed in a centrifuge to undergo centrifugation for 2 minutes. Then, 500 μL of the supernatant is taken and diluted with acetonitrile to an appropriate concentration, which is used as a test sample solution for HPLC analysis.
An appropriate amount of sample was weighed and put in a glass test tube, to which a selected solvent was gradually added. The clarification process was observed.

In data set [8] the test system is SD rats. Briefly: in vivo. As to conditions: both, Sprague-Dawley (SD), rat, 600 mg/kg, 14 days. As to the method:
as §1
(§5) Method: 120 SD rats were randomly divided into 4 groups, 30 rats in each group, half male and half female. The rats were given an intragastric administration of a solvent of PEG400/Kolliphor® HS15/ultrapure water (40/10/50, v/v/v) and the hydrobromide (100, 300 and 600 mg/kg) of Compound Z dissolved in the solvent, respectively, once a day for 14 consecutive days; two-thirds of the animals in each group (20 animals in each group, half male and half female) were dissected after the end of the administration period (day 15); the remaining animals in each group (10 animals in each group, half male and half female) were dissected at the end of the 14-day recovery period (day 29). The following indexes were observed, measured and evaluated: clinical observations, body weight, feed consumption, ophthalmological examination, hematology, blood coagulation, plasma biochemistry and plasma electrolytes, urinalysis, anatomical and morphological observation by naked eyes, organ weight and histopathological examination, and the accompanying rat bone marrow micronucleus test.

The nature of a further data set: in vivo. Further details: species or system SD rats. As to conditions: both sexes, Sprague-Dawley (SD), rat, po. Here is the method: as §1, §5
[9] abbreviates: listed as Hydrobromide of Compound Z with crystal form A.

Turning to `Br.[2H]c1cc([C@]2(C#N)O[C@H](COC(=O)C(C)C)[C@@H](OC(=O)C(C)C)[C@H]2OC(=O)C(C)C)n2ncnc(N)c12` [Hydrobromide of Compound Z, (2R,3R,4R,5R)-2-(4-aminopyrrolo[2,1-f][1,2,4]triazin-7-yl-5-d)-2-cyano-5-(isobutyryloxymethyl)tetrahydrofuran-3,4-diyl bis(2-methylpropanoate) hydrobromide], the Hygroscopicity result is on record as “None” in the data set “Hygroscopicity test”, “no hygroscopicity” in “Hygroscopicity test” (setting [9]), “no hygroscopicity” in the data set “Hygroscopicity test” (listed as hydrobromide of Compound Z with crystal form A) and “no hygroscopicity” in the data set “Hygroscopicity test” (listed as hydrobromide of Compound Z). The “increase in moisture content” value in “Hygroscopicity test” is recorded as “no increase”; in the data set “Hygroscopicity test” (setting [9]), “RH80%, with an increase in moisture content of <0.1%,”. For the same compound, the adverse drug reactions entry with beagle dogs [1] (beagle dogs, 250 mg/kg and 100 mg/kg intragastric once a day for 14 days) is “adverse drug reactions in ophthalmological examination, clinical pathology, pathological examination, and the like could be observed”. Moreover, the accidental death result in the data set on beagle dogs [1] (beagle dogs, 30, 100 and 250 mg/kg intragastric once a day for 14 days) is reported as “no accidental death”; in the data set on beagle dogs [5], “no accidental death”. In addition, the “various indexes at the end of the recovery period” value in the data set with beagle dogs [1] (beagle dogs, after 14-day recovery period) is on record as “returned to normal or showed a recovery trend”. In addition, the NOAEL at 14 days in data set [2] is 30 mg/kg; in “in vivo”, 100 mg/kg. Also, the “early death or euthanasia” value in the data set with SD rats [3] was “no early death or euthanasia”. Further, the MTD at 14 days in [4] was ≥ 2000 mg/kg; in [6], ≥ 1000 mg/kg. The Stability entry in data set [7] is “Good stability under high temperature (80° C.), high”. Besides, the solubility at 30 min in the data set “physchem” came to 410 µg/mL. Moreover, the death entry in the data set on SD rats [8] is recorded as “two animals in the 600 mg/kg dose group died”.

For the origin of these results see patent US20230312584A1, “SALT OF NUCLEOSIDE ANALOG, AND CRYSTAL FORM, PHARMACEUTICAL COMPOSITION AND USE THEREOF” (priority 2020, published 2023).
